# Results: patent US20100298141A1, “SUBSTITUTED PYRIDINE N-OXIDE HERBICIDES” (E. I. DU PONT DE NEMOURS AND COMPANY, priority 2007, published 2010)
# Legend:
# pitted morningglory = assay: Test F preemergence test; assay type: in vivo, Ipomoea lacunosa; conditions: scale 0 to 100
# In short: (§1)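 Compound in a non-phytotoxic solvent blend with surfactant is applied preemergence to planted seeds or postemergence to sugarcane plants. Plants and controls stay in the greenhouse 14 to 21 days before visual comparison.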
# common ragweed = assay: Test F preemergence test; assay type: in vivo, Ambrosia elation; conditions: scale 0 to 100
# In short: as §1
# morningglory = assay: Test C pre-/postemergence test; assay type: in vivo, Ipomoea coccinea
# In short: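 Test chemicals were formulated with surfactant in a non-phytotoxic solvent and sprayed both on freshly planted seeds (preemergence) and on 1- to 4-leaf plants of 2–18 cm (postemergence). Flooded-paddy pots received compound directly into 3 cm of standing water, maintained for the test.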
# rice = assay: Test C flooded paddy test; assay type: in vivo, Oryza sativa; conditions: Flood
# In short: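 Compound was added to standing water 3 cm above soil, flood maintained, and plants held in a greenhouse before visual scoring against controls at 13 to 15 days.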
# Surinam grass = assay: Test F preemergence test; assay type: in vivo, Brachiaria decumbens; conditions: scale 0 to 100
# In short: as §1
# large crabgrass = assay: Test F preemergence test; assay type: in vivo, Digitaria sanguinalis; conditions: scale 0 to 100
# In short: as §1
# johnsongrass = assay: Test F preemergence test; assay type: in vivo, Sorghum halepense; conditions: scale 0 to 100
# In short: as §1
# Virginia dayflower = assay: Test F preemergence test; assay type: in vivo, Commelina virginica; conditions: scale 0 to 100
# In short: as §1
# Italian ryegrass = assay: Test F preemergence test; assay type: in vivo, Lolium multiflorum; conditions: scale 0 to 100
# In short: as §1
# bermudagrass = assay: Test F preemergence test; assay type: in vivo, Cynodon dactylon; conditions: scale 0 to 100
# In short: as §1
# purple nutsedge = assay: Test F preemergence test; assay type: in vivo, Cyperus rotundus; conditions: scale 0 to 100
# In short: as §1
# kochia = assay: Test F preemergence test; assay type: in vivo, Kochia scoparia; conditions: scale 0 to 100
# In short: as §1
# naked crabgrass = assay: Test F preemergence test; assay type: in vivo, Digitaria nuda; conditions: scale 0 to 100
# In short: as §1
# annual bluegrass = assay: Test F preemergence test; assay type: in vivo, Poa annua; conditions: scale 0 to 100
# In short: as §1
# broadleaf signalgrass = assay: Test F preemergence test; assay type: in vivo, Brachiaria platyphylla; conditions: scale 0 to 100
# In short: as §1
# goosegrass = assay: Test F preemergence test; assay type: in vivo, Eleusine indica; conditions: scale 0 to 100
# In short: as §1
# [1] = Postemergence, 62 g ai/ha, scale 0 to 100, 0 no effect, 100 complete control
# [2] = Postemergence, 125 g ai/ha, scale 0 to 100, 0 no effect, 100 complete control
# [3] = Postemergence, 250 g ai/ha, scale 0 to 100, 0 no effect, 100 complete control
smiles,measurement,setting,value
CCn1nc(C(F)(F)F)c(CS(=O)(=O)c2cc(C)cc[n+]2[O-])c1OCC(F)(F)F [Compound 64],"Plant response rating, Morningglory","pitted morningglory; 16 g ai/ha, preemergence",0
same,Morningglory plant response rating,"pitted morningglory; 62 g ai/ha, Preemergence",0
same,Morningglory plant response rating,"pitted morningglory; 125 g ai/ha, preemergence",35
same,"Plant response rating, Morningglory","pitted morningglory; Preemergence, 31 g ai/ha",0
same,"Plant response rating, Ragweed","common ragweed; 16 g ai/ha, preemergence",0
same,Ragweed plant response rating,"common ragweed; 125 g ai/ha, preemergence",85
same,"Plant response rating, Ragweed","common ragweed; Preemergence, 62 g ai/ha",50
same,"Plant response rating, Ragweed","common ragweed; Preemergence, 31 g ai/ha",30
same,Morningglory plant response rating,"morningglory; 62 g ai/ha, Preemergence, scale 0 to 100",50
same,Morningglory plant response rating,"morningglory; 125 g ai/ha, preemergence, scale 0 (no effect) to 100 (complete control)",55
same,"Plant response rating (0 to 100), Morningglory","morningglory; Postemergence, 31 g ai/ha",0
same,"Plant response rating, Morningglory",morningglory; [1],0
same,"Plant response rating, Morningglory",morningglory; [2],0
same,"Plant response rating, Morningglory",morningglory; [3],0
same,"Plant response rating, Morningglory","morningglory; Preemergence, 31 g ai/ha, scale 0 to 100 (0 no effect, 100 complete control)",0
same,Morningglory plant response rating,"morningglory; preemergence, 250 g ai/ha, scale 0 (no effect) to 100 (complete control)",80
same,"Plant response rating, Rice","rice; 62 g ai/ha, scale 0 to 100 (0 no effect, 100 complete control)",0
same,"Plant response rating, Rice","rice; 250 g ai/ha, scale 0 to 100, 0 no effect, 100 complete control, 13 to 15 days",60
same,"Plant response rating, Surinam Grass","Surinam grass; 16 g ai/ha, preemergence",10
same,Surinam Grass plant response rating,"Surinam grass; 125 g ai/ha, preemergence",100
same,"Plant response rating, Surinam Grass","Surinam grass; Preemergence, 62 g ai/ha",95
same,"Plant response rating, Surinam Grass","Surinam grass; Preemergence, 31 g ai/ha",90
same,"Plant response rating, Crabgrass, Large","large crabgrass; 16 g ai/ha, preemergence",10
same,"Crabgrass, Large plant response rating","large crabgrass; 62 g ai/ha, Preemergence",75
same,"Crabgrass, Large plant response rating","large crabgrass; 125 g ai/ha, preemergence",95
same,"Plant response rating, Crabgrass, Large","large crabgrass; Preemergence, 31 g ai/ha",65
same,"Plant response rating, Johnsongrass","johnsongrass; 16 g ai/ha, preemergence",0
same,Johnsongrass plant response rating,"johnsongrass; 62 g ai/ha, Preemergence",90
same,Johnsongrass plant response rating,"johnsongrass; 125 g ai/ha, preemergence",100
same,"Plant response rating, Johnsongrass","johnsongrass; Preemergence, 31 g ai/ha",75
same,"Plant response rating, Dayflower","Virginia dayflower; 16 g ai/ha, preemergence",0
same,"Plant response rating, Ryegrass, Italian","Italian ryegrass; 16 g ai/ha, preemergence",0
same,"Ryegrass, Italian plant response rating","Italian ryegrass; 125 g ai/ha, preemergence",90
same,"Plant response rating, Ryegrass, Italian","Italian ryegrass; Preemergence, 62 g ai/ha",75
same,"Plant response rating, Ryegrass, Italian","Italian ryegrass; Preemergence, 31 g ai/ha",20
same,"Plant response rating, Bermudagrass","bermudagrass; 16 g ai/ha, preemergence",0
same,Bermudagrass plant response rating,"bermudagrass; 62 g ai/ha, Preemergence",75
same,Bermudagrass plant response rating,"bermudagrass; 125 g ai/ha, preemergence",90
same,"Plant response rating, Bermudagrass","bermudagrass; Preemergence, 31 g ai/ha",25
same,"Plant response rating, Purple Nutsedge","purple nutsedge; 16 g ai/ha, preemergence",20
same,Purple Nutsedge plant response rating,"purple nutsedge; 62 g ai/ha, Preemergence",50
same,Purple Nutsedge plant response rating,"purple nutsedge; 125 g ai/ha, preemergence",80
same,"Plant response rating, Purple Nutsedge","purple nutsedge; Preemergence, 31 g ai/ha",50
same,"Plant response rating, Kochia","kochia; 16 g ai/ha, preemergence",0
same,Kochia plant response rating,"kochia; 125 g ai/ha, preemergence",75
same,"Plant response rating, Crabgrass, Naked","naked crabgrass; 16 g ai/ha, preemergence",30
same,"Crabgrass, Naked plant response rating","naked crabgrass; 62 g ai/ha, Preemergence",100
same,"Crabgrass, Naked plant response rating","naked crabgrass; 125 g ai/ha, preemergence",100
same,"Plant response rating, Crabgrass, Naked","naked crabgrass; Preemergence, 31 g ai/ha",40
same,"Plant response rating, Bluegrass","annual bluegrass; 16 g ai/ha, preemergence",0
same,Bluegrass plant response rating,"annual bluegrass; 62 g ai/ha, Preemergence",90
same,Bluegrass plant response rating,"annual bluegrass; 125 g ai/ha, preemergence",90
same,"Plant response rating, Bluegrass","annual bluegrass; Preemergence, 31 g ai/ha",0
same,"Plant response rating, Signalgrass","broadleaf signalgrass; 16 g ai/ha, preemergence",30
same,Signalgrass plant response rating,"broadleaf signalgrass; 125 g ai/ha, preemergence",100
same,"Plant response rating, Signalgrass","broadleaf signalgrass; Preemergence, 62 g ai/ha",100
same,"Plant response rating, Signalgrass","broadleaf signalgrass; Preemergence, 31 g ai/ha",30
same,"Plant response rating, Goosegrass","goosegrass; 16 g ai/ha, preemergence",75
same,Goosegrass plant response rating,"goosegrass; 62 g ai/ha, Preemergence",90
same,Goosegrass plant response rating,"goosegrass; 125 g ai/ha, preemergence",98
same,"Plant response rating, Goosegrass","goosegrass; Preemergence, 31 g ai/ha",90
Cn1nc(C(F)(F)F)c(C[S+]([O-])c2cccc[n+]2[O-])c1OC(F)F (centres unmarked) [Compound 3],"Plant response rating, Morningglory","pitted morningglory; 8 g ai/ha, preemergence",0
same,Morningglory plant response rating,"pitted morningglory; 62 g ai/ha, Preemergence",35
same,"Plant response rating, Morningglory","pitted morningglory; Preemergence, 16 g ai/ha",0
same,"Plant response rating, Ragweed","common ragweed; 8 g ai/ha, preemergence",0
same,Ragweed plant response rating,"common ragweed; 62 g ai/ha, Preemergence",90
same,"Plant response rating, Ragweed","common ragweed; Preemergence, 16 g ai/ha",60
same,"Plant response rating, Ragweed","common ragweed; Preemergence, 31 g ai/ha",80
same,Morningglory plant response rating,"morningglory; 31 g ai/ha, Preemergence, scale 0 to 100",50
same,Morningglory plant response rating,"morningglory; 62 g ai/ha, preemergence, scale 0 (no effect) to 100 (complete control)",90
same,"Plant response rating (0 to 100), Morningglory","morningglory; Postemergence, 31 g ai/ha",5
same,"Plant response rating, Morningglory",morningglory; [1],50
same,"Plant response rating, Morningglory",morningglory; [2],50
same,"Plant response rating, Morningglory",morningglory; [3],50
same,"Plant response rating (0 to 100), Morningglory","morningglory; Preemergence, 250 g ai/ha",100
same,Morningglory plant response rating,"morningglory; preemergence, 125 g ai/ha, scale 0 (no effect) to 100 (complete control)",100
same,"Plant response rating, Rice","rice; 31 g ai/ha, scale 0 to 100 (0 no effect, 100 complete control)",0
same,"Plant response rating, Rice","rice; 62 g ai/ha, scale 0 to 100, 0 no effect, 100 complete control, 13 to 15 days",0
same,"Plant response rating, Rice","rice; 125 g ai/ha, scale 0 to 100, 0 no effect, 100 complete control, 13 to 15 days",60
same,"Plant response rating, Rice","rice; 250 g ai/ha, scale 0 to 100 (0 no effect, 100 complete control)",70
same,"Plant response rating, Surinam Grass","Surinam grass; 8 g ai/ha, preemergence",0
same,"Plant response rating, Surinam Grass","Surinam grass; 16 g ai/ha, preemergence",0
same,Surinam Grass plant response rating,"Surinam grass; 62 g ai/ha, Preemergence",95
same,"Plant response rating, Surinam Grass","Surinam grass; Preemergence, 31 g ai/ha",85
same,"Plant response rating, Crabgrass, Large","large crabgrass; 8 g ai/ha, preemergence",0
same,"Crabgrass, Large plant response rating","large crabgrass; 62 g ai/ha, Preemergence",100
same,"Plant response rating, Crabgrass, Large","large crabgrass; Preemergence, 16 g ai/ha",20
same,"Plant response rating, Crabgrass, Large","large crabgrass; Preemergence, 31 g ai/ha",70
same,"Plant response rating, Johnsongrass","johnsongrass; 8 g ai/ha, preemergence",0
same,Johnsongrass plant response rating,"johnsongrass; 62 g ai/ha, Preemergence",95
same,"Plant response rating, Johnsongrass","johnsongrass; Preemergence, 16 g ai/ha",65
same,"Plant response rating, Johnsongrass","johnsongrass; Preemergence, 31 g ai/ha",90
same,"Plant response rating, Dayflower","Virginia dayflower; 8 g ai/ha, preemergence",0
same,Dayflower plant response rating,"Virginia dayflower; 62 g ai/ha, Preemergence",90
same,"Plant response rating, Dayflower","Virginia dayflower; Preemergence, 16 g ai/ha",0
same,"Plant response rating, Dayflower","Virginia dayflower; Preemergence, 31 g ai/ha",90
same,"Plant response rating, Ryegrass, Italian","Italian ryegrass; 8 g ai/ha, preemergence",0
same,"Ryegrass, Italian plant response rating","Italian ryegrass; 62 g ai/ha, Preemergence",80
same,"Plant response rating, Ryegrass, Italian","Italian ryegrass; Preemergence, 16 g ai/ha",30
same,"Plant response rating, Ryegrass, Italian","Italian ryegrass; Preemergence, 31 g ai/ha",65
same,"Plant response rating, Bermudagrass","bermudagrass; 8 g ai/ha, preemergence",0
same,Bermudagrass plant response rating,"bermudagrass; 62 g ai/ha, Preemergence",85
same,"Plant response rating, Bermudagrass","bermudagrass; Preemergence, 16 g ai/ha",0
same,"Plant response rating, Bermudagrass","bermudagrass; Preemergence, 31 g ai/ha",65
same,"Plant response rating, Purple Nutsedge","purple nutsedge; 8 g ai/ha, preemergence",0
same,Purple Nutsedge plant response rating,"purple nutsedge; 62 g ai/ha, Preemergence",80
same,"Plant response rating, Purple Nutsedge","purple nutsedge; Preemergence, 16 g ai/ha",60
same,"Plant response rating, Purple Nutsedge","purple nutsedge; Preemergence, 31 g ai/ha",75
same,"Plant response rating, Kochia","kochia; 8 g ai/ha, preemergence",20
same,Kochia plant response rating,"kochia; 62 g ai/ha, Preemergence",100
same,"Plant response rating, Kochia","kochia; Preemergence, 16 g ai/ha",30
same,"Plant response rating, Kochia","kochia; Preemergence, 31 g ai/ha",65
same,"Plant response rating, Crabgrass, Naked","naked crabgrass; 8 g ai/ha, preemergence",20
same,"Crabgrass, Naked plant response rating","naked crabgrass; 62 g ai/ha, Preemergence",100
same,"Plant response rating, Crabgrass, Naked","naked crabgrass; Preemergence, 16 g ai/ha",80
same,"Plant response rating, Crabgrass, Naked","naked crabgrass; Preemergence, 31 g ai/ha",90
same,"Plant response rating, Bluegrass","annual bluegrass; 8 g ai/ha, preemergence",0
same,Bluegrass plant response rating,"annual bluegrass; 62 g ai/ha, Preemergence",50
same,"Plant response rating, Bluegrass","annual bluegrass; Preemergence, 16 g ai/ha",0
same,"Plant response rating, Bluegrass","annual bluegrass; Preemergence, 31 g ai/ha",50
same,"Plant response rating, Signalgrass","broadleaf signalgrass; 8 g ai/ha, preemergence",0
same,"Plant response rating, Signalgrass","broadleaf signalgrass; 16 g ai/ha, preemergence",0
same,Signalgrass plant response rating,"broadleaf signalgrass; 62 g ai/ha, Preemergence",75
same,"Plant response rating, Signalgrass","broadleaf signalgrass; Preemergence, 31 g ai/ha",75
same,"Plant response rating, Goosegrass","goosegrass; 8 g ai/ha, preemergence",0
same,Goosegrass plant response rating,"goosegrass; 62 g ai/ha, Preemergence",98
same,"Plant response rating, Goosegrass","goosegrass; Preemergence, 16 g ai/ha",40
same,"Plant response rating, Goosegrass","goosegrass; Preemergence, 31 g ai/ha",95
